{"source": "patent US6828344B1", "about": "“Inhibitors of phospholipase enzymes” (Genetics Institute, LLC, priority 1998, dated 2004)", "data": [{"target": "T1, cPLA2 (Homo sapiens, UniProt P47712)", "T1 sequence (P47712 1-749)": "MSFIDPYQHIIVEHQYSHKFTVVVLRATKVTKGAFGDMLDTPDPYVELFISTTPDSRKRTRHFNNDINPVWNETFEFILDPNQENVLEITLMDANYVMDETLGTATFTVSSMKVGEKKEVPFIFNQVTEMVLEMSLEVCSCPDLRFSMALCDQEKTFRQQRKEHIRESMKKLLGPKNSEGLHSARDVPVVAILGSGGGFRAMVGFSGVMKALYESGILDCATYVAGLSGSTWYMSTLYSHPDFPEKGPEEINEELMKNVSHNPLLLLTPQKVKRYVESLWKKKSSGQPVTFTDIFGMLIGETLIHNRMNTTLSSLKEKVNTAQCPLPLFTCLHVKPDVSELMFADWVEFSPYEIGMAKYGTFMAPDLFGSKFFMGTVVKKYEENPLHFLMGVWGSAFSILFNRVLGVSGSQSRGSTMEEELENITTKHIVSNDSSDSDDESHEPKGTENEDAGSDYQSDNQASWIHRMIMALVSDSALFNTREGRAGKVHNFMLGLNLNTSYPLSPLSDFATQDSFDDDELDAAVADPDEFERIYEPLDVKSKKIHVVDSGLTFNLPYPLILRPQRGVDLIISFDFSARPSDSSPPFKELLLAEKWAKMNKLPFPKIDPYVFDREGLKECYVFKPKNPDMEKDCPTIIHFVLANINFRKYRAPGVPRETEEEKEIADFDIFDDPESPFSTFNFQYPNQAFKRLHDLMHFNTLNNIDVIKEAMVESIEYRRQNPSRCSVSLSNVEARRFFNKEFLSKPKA", "test": "Coumarine assay (cPLA2 inhibition)", "format": "biochemical", "conditions": "7-hydroxycoumarinyl 6-heptenoate as monomeric substrate, fluorescence 360/460 nm; read-out: Coumarin IC50", "method": "7-hydroxycoumarinyl 6-heptenoate was used as a monomeric substrate for cPLA2 as reported previously (Huang, Z. et al., 1994, Nalytical Biochemistry 222, 110-115). Inhibitors were mixed with 200 μL assay buffer (80 mM Heped, pH 7.5, l mM EDTA) containing 60 μM 7-hydroxycoumarinyl 6-heptenoate. The reaction was initiated by adding 4 μg cPLA2 in 50 μL assay buffer. Hydrolysis of the 7-hydroxycoumarinyl 6-heptenoate ester was monitored in a fluorometer by exciting at 360 nm and monitoring emission at 460 nm. Enzyme activity is proportional to the increase in emission at 460 nm per minute. In the presence of a cPLA2 inhibitor, the rate of increase is less.", "units": {"IC50": "µM"}, "values": [{"compound": "Cc1c(C(c2ccccc2)c2ccccc2)c2cc(Cl)ccc2n1CCOc1ccc(C(=O)O)cc1", "note": "[Example 89, 4-[2-(3benzhydryl-5-chloro-2-methyl-1H-indol-1-yl)ethoxy]benzoic acid]", "IC50": 2.5}, {"compound": "O=C(O)CCc1ccc(S(=O)(=O)CCn2cc(C(c3ccccc3)c3ccccc3)c3ccc(Cl)cc32)cc1", "note": "[Example 91, 3(4-{[2-(3-benzhydryl-6-chloro-1H-indol-1-yl)ethyl]sulfonyl}phenyl)propanoic acid]", "IC50": 4}, {"compound": "O=C(O)c1ccc(S(=O)(=O)CCn2cc(C(c3ccccc3)c3ccccc3)c3ccc(Cl)cc32)cc1", "note": "[Example 92, 4-{[2-(3-benzhydryl-6-chloro-1H-indol-1-yl)ethyl]sulfonyl}benzoic acid]", "IC50": 9}, {"compound": "Cc1c(C(c2ccccc2)c2ccccc2)c2ccccc2n1CCOc1ccc(C(=O)O)cc1", "note": "[Example 93, 4-[2-(3-benzhydryl-2-methyl-1H-indol-1-yl)ethoxy]benzoic acid]", "IC50": 2.5}, {"compound": "Cc1c(C(c2ccccc2)c2ccccc2)c2cc(Cl)ccc2n1CCOc1ccc(CCC(=O)O)cc1", "note": "[Example 90, 3-{4-[2-(3-benzhydryl-5-chloro-2-methyl-1H-indol-1-yl)ethoxy]phenyl}propanoic acid]", "IC50": 1.2}, {"compound": "Cc1c(C(c2ccccc2)c2ccccc2)c2cc(Cl)ccc2n1C/C=C/COc1ccc(C(=O)O)cc1", "note": "[Example 88, 4-{[(E)-4-(3-benzhydryl-5-chloro-2-methyl-1H-indol-1-yl)-2-butenyl]oxy}benzoic acid]", "IC50": 1.1}]}]}
